Measurements: PubChem BioAssay (NCI)
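Briefly, cells in 96-well plates were exposed to five compound concentrations for 48 h, and endpoints were estimated by linear interpolation. TGI is the concentration that stops growth completely.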

Tests used:
Assay in all cases: DTP human tumour cell line panel, 48 h
SW-620 colon = system: SW-620 colon
SK-MEL-28 melanoma = system: SK-MEL-28 melanoma
HL-60(TB) leukemia = system: HL-60(TB) leukemia
NCI-H522 lung = system: NCI-H522 lung
HCT-15 colon = system: HCT-15 colon
SK-MEL-2 melanoma = system: SK-MEL-2 melanoma
UO-31 renal = system: UO-31 renal
HS 578T breast = system: HS 578T breast
HCT-116 colon = system: HCT-116 colon
ACHN renal = system: ACHN renal
LOX IMVI melanoma = system: LOX IMVI melanoma
M14 melanoma = system: M14 melanoma
OVCAR-4 ovarian = system: OVCAR-4 ovarian
NCI-H23 lung = system: NCI-H23 lung
OVCAR-8 ovarian = system: OVCAR-8 ovarian
KM12 colon = system: KM12 colon
SNB-75 CNS = system: SNB-75 CNS
HCC-2998 colon = system: HCC-2998 colon
SK-OV-3 ovarian = system: SK-OV-3 ovarian
MDA-MB-231 breast = system: MDA-MB-231 breast
MDA-MB-435 = system: MDA-MB-435
HOP-62 NSCLC = system: HOP-62 NSCLC
SF-539 CNS = system: SF-539 CNS
T-47D breast = system: T-47D breast
IGROV1 ovarian = system: IGROV1 ovarian
SNB-19 CNS = system: SNB-19 CNS
OVCAR-5 ovarian = system: OVCAR-5 ovarian
MDA-N = system: MDA-N
K-562 leukemia = system: K-562 leukemia
BT-549 breast = system: BT-549 breast
OVCAR-3 ovarian = system: OVCAR-3 ovarian
NCI-H460 lung = system: NCI-H460 lung
DU-145 prostate = system: DU-145 prostate
NCI-H226 lung = system: NCI-H226 lung
MOLT-4 leukemia = system: MOLT-4 leukemia
SF-295 CNS = system: SF-295 CNS
TK-10 renal = system: TK-10 renal
UACC-62 melanoma = system: UACC-62 melanoma
COLO 205 colon = system: COLO 205 colon
MALME-3M melanoma = system: MALME-3M melanoma
SK-MEL-5 melanoma = system: SK-MEL-5 melanoma
UACC-257 melanoma = system: UACC-257 melanoma
U251 CNS = system: U251 CNS
HT29 colon = system: HT29 colon
HOP-92 NSCLC = system: HOP-92 NSCLC
A498 renal = system: A498 renal
SF-268 CNS = system: SF-268 CNS
A549 NSCLC = system: A549 NSCLC
CAKI-1 renal = system: CAKI-1 renal
PC-3 prostate = system: PC-3 prostate
RXF 393 renal = system: RXF 393 renal
RPMI-8226 leukemia = system: RPMI-8226 leukemia
CCRF-CEM leukemia = system: CCRF-CEM leukemia
786-0 renal = system: 786-0 renal
MCF7 breast = system: MCF7 breast
EKVX NSCLC = system: EKVX NSCLC
SN12C renal = system: SN12C renal
NCI/ADR-RES ovarian = system: NCI/ADR-RES ovarian

## O=C(O)C1OC1(c1cccc(Cl)c1)c1ccccc1Cl (stereo not given)
SW-620 colon
  TGI: > 100 µM
SK-MEL-28 melanoma
  TGI: 61.3 µM
HL-60(TB) leukemia
  TGI: 55.2 µM
NCI-H522 lung
  TGI: 65 µM
HCT-15 colon
  TGI: 22.9 µM
SK-MEL-2 melanoma
  TGI: 31.2 µM
UO-31 renal
  TGI: 58.5 µM
HS 578T breast
  TGI: 52.4 µM
HCT-116 colon
  TGI: 43.7 µM
ACHN renal
  TGI: > 100 µM
LOX IMVI melanoma
  TGI: 44 µM
M14 melanoma
  TGI: 42.2 µM
OVCAR-4 ovarian
  TGI: > 100 µM
NCI-H23 lung
  TGI: 54.6 µM
OVCAR-8 ovarian
  TGI: > 100 µM
KM12 colon
  TGI: > 100 µM
SNB-75 CNS
  TGI: 57.6 µM
HCC-2998 colon
  TGI: > 100 µM
SK-OV-3 ovarian
  TGI: 66.8 µM
MDA-MB-231 breast
  TGI: 35.8 µM
MDA-MB-435
  TGI: > 100 µM
HOP-62 NSCLC
  TGI: 61.3 µM
SF-539 CNS
  TGI: 43.7 µM
T-47D breast
  TGI: > 100 µM
IGROV1 ovarian
  TGI: > 100 µM
SNB-19 CNS
  TGI: > 100 µM
OVCAR-5 ovarian
  TGI: > 100 µM
MDA-N
  TGI: 65.6 µM
K-562 leukemia
  TGI: 87.6 µM
BT-549 breast
  TGI: 39 µM
OVCAR-3 ovarian
  TGI: 46.1 µM
NCI-H460 lung
  TGI: > 100 µM
DU-145 prostate
  TGI: 77.5 µM
NCI-H226 lung
  TGI: 83.8 µM
MOLT-4 leukemia
  TGI: 82.4 µM
SF-295 CNS
  TGI: 76.5 µM
TK-10 renal
  TGI: > 100 µM
UACC-62 melanoma
  TGI: 35 µM
COLO 205 colon
  TGI: > 100 µM
MALME-3M melanoma
  TGI: 49.9 µM
SK-MEL-5 melanoma
  TGI: 35.4 µM
UACC-257 melanoma
  TGI: 70.6 µM
U251 CNS
  TGI: 25.4 µM
HT29 colon
  TGI: 64.7 µM
HOP-92 NSCLC
  TGI: 94.4 µM
A498 renal
  TGI: > 100 µM
SF-268 CNS
  TGI: 47.8 µM
A549 NSCLC
  TGI: > 100 µM
CAKI-1 renal
  TGI: 81.8 µM
PC-3 prostate
  TGI: 57.9 µM
RXF 393 renal
  TGI: 82.1 µM
RPMI-8226 leukemia
  TGI: 94.8 µM
CCRF-CEM leukemia
  TGI: 53.3 µM
786-0 renal
  TGI: > 100 µM
MCF7 breast
  TGI: > 100 µM
EKVX NSCLC
  TGI: 68.4 µM
SN12C renal
  TGI: 56.3 µM
NCI/ADR-RES ovarian
  TGI: 47.3 µM

## C/C=C\C(CC(=O)NCCC1CN(S(=O)(=O)c2ccc(C)cc2)c2ccccc21)CC(=O)OC (stereo not given)
SW-620 colon
  TGI: > 100 µM
SK-MEL-28 melanoma
  TGI: > 100 µM
NCI-H522 lung
  TGI: > 100 µM
HCT-15 colon
  TGI: > 100 µM
SK-MEL-2 melanoma
  TGI: > 100 µM
UO-31 renal
  TGI: > 100 µM
HS 578T breast
  TGI: > 100 µM
HCT-116 colon
  TGI: > 100 µM
ACHN renal
  TGI: > 100 µM
M14 melanoma
  TGI: > 100 µM
OVCAR-4 ovarian
  TGI: > 100 µM
NCI-H23 lung
  TGI: > 100 µM
OVCAR-8 ovarian
  TGI: > 100 µM
KM12 colon
  TGI: > 100 µM
SNB-75 CNS
  TGI: > 100 µM
HCC-2998 colon
  TGI: > 100 µM
SK-OV-3 ovarian
  TGI: > 100 µM
MDA-MB-231 breast
  TGI: > 100 µM
MDA-MB-435
  TGI: > 100 µM
HOP-62 NSCLC
  TGI: > 100 µM
T-47D breast
  TGI: > 100 µM
IGROV1 ovarian
  TGI: > 100 µM
SNB-19 CNS
  TGI: > 100 µM
OVCAR-5 ovarian
  TGI: > 100 µM
MDA-N
  TGI: > 100 µM
K-562 leukemia
  TGI: > 100 µM
BT-549 breast
  TGI: > 100 µM
OVCAR-3 ovarian
  TGI: > 100 µM
NCI-H460 lung
  TGI: > 100 µM
DU-145 prostate
  TGI: > 100 µM
MOLT-4 leukemia
  TGI: > 100 µM
SF-295 CNS
  TGI: > 100 µM
TK-10 renal
  TGI: > 100 µM
UACC-62 melanoma
  TGI: > 100 µM
COLO 205 colon
  TGI: > 100 µM
MALME-3M melanoma
  TGI: > 100 µM
SK-MEL-5 melanoma
  TGI: > 100 µM
UACC-257 melanoma
  TGI: > 100 µM
U251 CNS
  TGI: > 100 µM
HT29 colon
  TGI: > 100 µM
HOP-92 NSCLC
  TGI: > 100 µM
A498 renal
  TGI: > 100 µM
SF-268 CNS
  TGI: > 100 µM
A549 NSCLC
  TGI: > 100 µM
CAKI-1 renal
  TGI: > 100 µM
PC-3 prostate
  TGI: > 100 µM
RXF 393 renal
  TGI: > 100 µM
RPMI-8226 leukemia
  TGI: > 100 µM
786-0 renal
  TGI: > 100 µM
MCF7 breast
  TGI: > 100 µM
EKVX NSCLC
  TGI: > 100 µM
NCI/ADR-RES ovarian
  TGI: > 100 µM
